As usually defined, the Kd is the equilibrium constant for the complex coming apart. A low value points to a tighter complex.

Structures are written as SMILES.

These results are taken from publication PMC5347771 (Oncotarget, 2016).

One test has as its target T1, TYRO-3 (Homo sapiens, UniProt Q06418).
T1 construct: gene TYRO3
T1 sequence (Q06418 41-890): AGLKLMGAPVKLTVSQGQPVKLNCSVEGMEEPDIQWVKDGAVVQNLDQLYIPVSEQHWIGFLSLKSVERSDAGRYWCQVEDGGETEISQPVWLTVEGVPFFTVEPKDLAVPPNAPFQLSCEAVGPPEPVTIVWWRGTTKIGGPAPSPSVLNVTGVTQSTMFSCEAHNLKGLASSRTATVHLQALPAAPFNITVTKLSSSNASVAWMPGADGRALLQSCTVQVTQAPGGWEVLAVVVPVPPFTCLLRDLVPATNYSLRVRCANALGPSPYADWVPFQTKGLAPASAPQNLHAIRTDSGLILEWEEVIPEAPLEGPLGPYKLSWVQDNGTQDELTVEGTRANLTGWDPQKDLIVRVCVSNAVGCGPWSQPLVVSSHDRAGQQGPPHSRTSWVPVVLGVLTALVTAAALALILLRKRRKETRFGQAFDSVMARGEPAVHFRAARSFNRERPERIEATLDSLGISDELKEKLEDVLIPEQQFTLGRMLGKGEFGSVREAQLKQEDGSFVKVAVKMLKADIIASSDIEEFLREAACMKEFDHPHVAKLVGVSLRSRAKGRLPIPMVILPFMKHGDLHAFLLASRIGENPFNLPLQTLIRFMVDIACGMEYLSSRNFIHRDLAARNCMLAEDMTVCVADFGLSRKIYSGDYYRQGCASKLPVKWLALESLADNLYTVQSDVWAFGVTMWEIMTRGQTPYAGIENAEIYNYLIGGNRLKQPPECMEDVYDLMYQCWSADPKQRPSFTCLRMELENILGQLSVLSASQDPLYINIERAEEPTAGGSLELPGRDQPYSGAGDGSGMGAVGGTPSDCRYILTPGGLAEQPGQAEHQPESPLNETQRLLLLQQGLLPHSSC
Kind of test: KINOMEscan competition binding (DiscoveRx); enzyme IC50 […] also measured (Reaction Biology).

A further test concerns the target T2, AXL (Homo sapiens, UniProt P30530).
T2 sequence (P30530 26-894): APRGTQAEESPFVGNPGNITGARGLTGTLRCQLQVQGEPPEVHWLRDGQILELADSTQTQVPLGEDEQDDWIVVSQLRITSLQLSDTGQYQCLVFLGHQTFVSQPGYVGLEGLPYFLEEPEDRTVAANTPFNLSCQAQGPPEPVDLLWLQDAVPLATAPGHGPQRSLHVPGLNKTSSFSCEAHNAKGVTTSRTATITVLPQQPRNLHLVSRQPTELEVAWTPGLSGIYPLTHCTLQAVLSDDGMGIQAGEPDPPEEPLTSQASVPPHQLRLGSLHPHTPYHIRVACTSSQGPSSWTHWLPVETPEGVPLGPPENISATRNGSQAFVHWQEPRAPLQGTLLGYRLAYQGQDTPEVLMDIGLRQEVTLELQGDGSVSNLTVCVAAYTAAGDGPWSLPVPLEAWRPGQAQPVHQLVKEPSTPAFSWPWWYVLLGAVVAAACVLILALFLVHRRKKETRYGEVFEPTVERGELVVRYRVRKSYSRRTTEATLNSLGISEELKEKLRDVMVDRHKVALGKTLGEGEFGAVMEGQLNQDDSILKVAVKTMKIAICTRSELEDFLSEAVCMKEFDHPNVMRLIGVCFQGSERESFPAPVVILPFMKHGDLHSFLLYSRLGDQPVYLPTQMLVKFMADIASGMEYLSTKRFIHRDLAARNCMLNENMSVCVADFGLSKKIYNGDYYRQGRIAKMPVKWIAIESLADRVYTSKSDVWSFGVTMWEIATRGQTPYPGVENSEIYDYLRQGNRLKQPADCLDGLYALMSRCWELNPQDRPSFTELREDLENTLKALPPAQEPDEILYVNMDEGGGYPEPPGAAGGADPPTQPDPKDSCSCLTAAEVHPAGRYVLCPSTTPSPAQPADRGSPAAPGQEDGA
The test is described as above.

In the case of `NC(=O)Nc1cc(-c2cccc(F)c2)sc1C(=O)N[C@H]1CCCNC1` [DN10764, (S)-5-(3-fluorophenyl)-N-(piperidin-3-yl)-3-ureidothiophene-2-carboxamide], the values for the Kd at TYRO-3 and at AXL were 1050 nM and 26 nM, respectively.
